The values that follow come from patent US20230159538A1, “PYRROLIDINE-PYRAZOLES AS PYRUVATE KINASE ACTIVATORS” (Global Blood Therapeutics, Inc., priority 2020, published 2023).

For one test, the target named is PKR (Mus musculus, UniProt P53657). The settings on record: mouse model of beta-thalassemia; cited from earlier work.
Test [1] has as its target T1, Human pyruvate kinase R (PKR) (Homo sapiens, UniProt P30613).
T1 construct: Human pyruvate kinase R (PKR), residues 14-574; 6x-His (N, cleaved yes); 8x-Arg (N, cleaved yes); SUMO (N, cleaved yes); host or cells: E. coli
As to the kind of experiment: Biochemical assay for activation of pyruvate kinase R (Kinase-Glo luminescence, ATP generation). The settings on record: for AC50: 0.1 nM PKR, 2 mM FBP, 0.3 mM ADP, 0.1 mM PEP; for PKR % activation: maximal activation level relative to the activation level achieved by AG-348 @ 10 μM. The method, boiled down:
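E. coli-expressed human PKR, freed of its His-Arg-SUMO tag and purified by anion exchange and size exclusion, was tested for activation. Read-out was luminescent measurement of ATP generation with Kinase-Glo reagent.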

Test [2] deals with T2, Pyruvate kinase M2 (PKM2) in H1299 cells (Homo sapiens, UniProt P14618).
T2 construct: endogenous in cells; host or cells: H1299
T2 sequence (P14618 2-531 limits assumed): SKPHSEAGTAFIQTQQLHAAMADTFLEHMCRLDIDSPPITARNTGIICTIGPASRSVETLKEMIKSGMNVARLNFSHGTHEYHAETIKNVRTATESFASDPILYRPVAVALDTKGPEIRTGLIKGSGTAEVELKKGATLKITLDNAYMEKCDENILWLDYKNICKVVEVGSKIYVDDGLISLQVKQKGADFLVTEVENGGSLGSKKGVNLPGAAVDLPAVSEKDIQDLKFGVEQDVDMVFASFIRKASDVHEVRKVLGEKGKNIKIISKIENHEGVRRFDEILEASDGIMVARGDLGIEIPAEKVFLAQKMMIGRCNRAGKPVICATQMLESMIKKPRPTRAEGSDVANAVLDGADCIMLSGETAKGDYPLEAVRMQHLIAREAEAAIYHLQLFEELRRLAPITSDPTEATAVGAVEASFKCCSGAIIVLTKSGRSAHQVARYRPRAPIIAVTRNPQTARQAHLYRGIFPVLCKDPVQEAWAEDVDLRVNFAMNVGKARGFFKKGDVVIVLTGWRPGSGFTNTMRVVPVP
Briefly: Cell based assay for activation of pyruvate kinase M2 in lung carcinoma cell line (NADH/LDH coupled assay on cell lysate). The settings on record: PKM2 cellular assay; for AC50: H1299 cells, 90 minutes with compound; for PKM2 % activation: maximal activation level relative to the activation level achieved by AG-348 @ 10 μM. The procedure: Cell Based Assay for Activation of Pyruvate Kinase M2 in Lung Carcinoma Cell Line
H1299 cells were seeded in 96-well plates at 2,000 cells/well (100 uL). Treated plates were incubated overnight at 37° C. with 5% CO2. Compounds were diluted in complete media and added to cells in the presence of 1% DMSO. Cells were incubated with compound for 90 minutes at 37° C. and 5% CO2 before washing three times with PBS to remove residual compound and then lysed in lysis buffer (Cell Signaling). […] PKM2 activity was measured at steady state using a coupled enzyme activation system based on NADH consumption. PKM2 produces pyruvate and the coupled system uses lactate dehydrogenase (LDH) to reduce pyruvate to lactate with the concomitant oxidation of NADH to NAD^+. Conversion of NADH to NAD^+ was monitored using a SPECTROstar Nano plate reader (BMG Labtech) at a wavelength of 340 nm and subtraction of background absorbance measured at 750 nm. The change in NADH absorbance after PEP addition was monitored and slope obtained by subtracting baseline at 750 nm followed by least squares fitting to a simple linear regression model. A 10-point curve was generated to calculate the AC50 values by fitting the rates of NADH consumption against increasing concentration of compound.

T1 sequence (P30613 14-574): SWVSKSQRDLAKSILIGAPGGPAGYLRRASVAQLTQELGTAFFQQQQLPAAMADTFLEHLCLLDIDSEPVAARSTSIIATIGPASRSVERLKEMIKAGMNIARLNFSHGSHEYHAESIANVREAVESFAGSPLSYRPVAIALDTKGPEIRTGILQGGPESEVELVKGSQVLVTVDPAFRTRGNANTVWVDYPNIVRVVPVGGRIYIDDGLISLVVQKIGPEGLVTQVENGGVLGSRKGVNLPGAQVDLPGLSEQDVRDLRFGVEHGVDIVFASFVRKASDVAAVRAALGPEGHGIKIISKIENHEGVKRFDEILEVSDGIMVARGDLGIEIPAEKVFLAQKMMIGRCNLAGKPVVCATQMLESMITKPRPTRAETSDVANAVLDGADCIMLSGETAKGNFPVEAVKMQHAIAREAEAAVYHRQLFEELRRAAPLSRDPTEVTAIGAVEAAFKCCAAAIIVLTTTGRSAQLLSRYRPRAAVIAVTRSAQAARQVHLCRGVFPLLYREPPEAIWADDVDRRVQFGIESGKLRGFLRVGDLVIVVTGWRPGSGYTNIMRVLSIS
Chain of PKR (P53657 whole entry): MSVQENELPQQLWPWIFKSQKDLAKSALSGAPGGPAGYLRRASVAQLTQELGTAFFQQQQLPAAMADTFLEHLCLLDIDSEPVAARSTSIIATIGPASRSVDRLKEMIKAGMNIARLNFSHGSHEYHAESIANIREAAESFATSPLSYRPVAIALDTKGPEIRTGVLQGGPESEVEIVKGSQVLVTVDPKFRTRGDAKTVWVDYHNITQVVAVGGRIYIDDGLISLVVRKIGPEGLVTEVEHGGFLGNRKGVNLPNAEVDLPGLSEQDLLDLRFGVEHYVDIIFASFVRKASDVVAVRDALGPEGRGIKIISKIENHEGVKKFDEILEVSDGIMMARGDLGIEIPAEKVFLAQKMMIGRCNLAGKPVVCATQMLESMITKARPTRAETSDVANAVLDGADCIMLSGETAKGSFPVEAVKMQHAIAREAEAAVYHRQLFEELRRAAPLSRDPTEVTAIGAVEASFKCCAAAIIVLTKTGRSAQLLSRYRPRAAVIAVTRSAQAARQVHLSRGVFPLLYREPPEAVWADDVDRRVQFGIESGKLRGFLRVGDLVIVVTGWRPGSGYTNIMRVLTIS

Consider `O=C(c1ccc(NS(=O)(=O)c2cccc3cccnc23)cc1)N1CCN(CC2CC2)CC1` [AG-348, Mitapivat], for which the RBC parameters entry on PKR is “improved”.

What is called AC50 is the concentration at which the activity in the assay is half-maximal. For `O=S(=O)(c1ccc2c(c1)NCCO2)N1Cc2cn(S(=O)(=O)c3ccc4ncsc4c3)nc2C1` [Compound 12, 6-{[2-(1,3-benzothiazole-6-sulfonyl)-2H,4H,5H,6H-pyrrolo[3,4-c]pyrazol-5-yl]sulfonyl}-3,4-dihydro-2H-1,4-benzoxazine], the values for the AC50 in test [1] and in test [2] were 41 nM and 23 nM, respectively.

With `N[C@H](C(=O)N1Cc2cn(S(=O)(=O)c3ccc4ncsc4c3)nc2C1)c1ccccc1` [Compound 14, (2S)-2-amino-1[2-(1,3-benzothiazole-6-sulfonyl)-2H,4H,5H,6H-pyrrolo[3,4-c]pyrazol-5-yl]-2-phenylethan-1-one], the results for the AC50 in test [1] and in test [2] were 110 nM and 53 nM, respectively.

Turning to `N[C@@H](C(=O)N1Cc2cn(S(=O)(=O)c3ccc4ncsc4c3)nc2C1)c1ccccc1` [Compound 15, (2R)-2-amino-1-[2-(1,3-benzothiazole-6-sulfonyl)-2H,4H,5H,6H-pyrrolo[3,4-c]pyrazol-5-yl]-2-phenylethan-1-one], the results for the AC50 in test [1] and in test [2] were 45 nM and 26 nM, respectively.

`N[C@@H](C(=O)N1Cc2cn(S(=O)(=O)c3ccc4ncsc4c3)nc2C1)c1ccccc1F` [Compound 17, (2R)-2-amino-1-[2-(1,3-benzothiazole-6-sulfonyl)-2H,4H,5H,6H-pyrrolo[3,4-c]pyrazol-5-yl]-2-(2-fluorophenyl)ethan-1-one]: the AC50 in test [1] turned out to be 24 nM; in test [2] it was 23 nM.

In test [1], `C[C@@H](O)[C@H](C(=O)N1Cc2cn(S(=O)(=O)c3ccc4c(c3)NCCO4)nc2C1)c1ccccc1` [Compound 23] gave an AC50 of 56 nM and a PKR % activation of 95%. Also, in test [2], the half-maximal activity concentration (AC50) came out at 61 nM and the PKM2 % activation came out at 116%.

Turning to `C[C@@H](O)[C@H](C(=O)N1Cc2cn(S(=O)(=O)c3ccc4c(c3)NCCO4)nc2C1)c1ccccc1` [Compound 24], in test [1], the activity was half-maximal at 78 nM (AC50) and the PKR % activation was determined as 65%. In test [2], the AC50 was found to be 59 nM and the PKM2 % activation came out at 63%.

Turning to `N[C@@H](C(=O)N1Cc2cn(S(=O)(=O)c3ccc(OC(F)F)cc3)nc2C1)c1cccc(F)c1` [Compound 29, (2R)-2-amino-1-{2-[4-(difluoromethoxy)benzenesulfonyl]-2H,4H,5H,6H-pyrrolo[3,4-c]pyrazol-5-yl}-2-(3-fluorophenyl)ethan-1-one], the AC50 was 92 nM in test [1] and 25 nM in test [2].

For the compound `N[C@@H](C(=O)N1Cc2cn(S(=O)(=O)c3ccc4ncsc4c3)nc2C1)c1cccc(F)c1` [Compound 32, (2R)-2-amino-1-[2-(1,3-benzothiazole-6-sulfonyl)-2H,4H,5H,6H-pyrrolo[3,4-c]pyrazol-5-yl]-2-(3-fluorophenyl)ethan-1-one], the half-maximal activity concentration (AC50) in test [1] came to 38 nM; in test [2] it was 91 nM.

As for `Cc1cccc([C@@H](N)C(=O)N2Cc3cn(S(=O)(=O)c4ccc5ncsc5c4)nc3C2)c1` [Compound 37, (2R)-2-amino-1-[2-(1,3-benzothiazole-6-sulfonyl)-2H,4H,5H,6H-pyrrolo[3,4-c]pyrazol-5-yl]-2-(3-methylphenyl)ethan-1-one], the AC50 came to 21 nM in test [1] and 17 nM in test [2].

With `O=C(N1Cc2cn(S(=O)(=O)c3ccc4ncsc4c3)nc2C1)C1(c2ccccc2)COC1` [Compound 40, 6-{[5-(3-phenyloxetane-3-carbonyl)-2H,4H,5H,6H-pyrrolo[3,4-c]pyrazol-2-yl]sulfonyl}-1,3-benzothiazole], the results for the AC50 in test [1] and in test [2] were 60 nM and 31 nM, respectively.

For `O=C([C@H](O)c1ccccc1)N1Cc2cn(S(=O)(=O)c3ccc4ncsc4c3)nc2C1` [Compound 42, (2R)-1-[2-(1,3-benzothiazole-6-sulfonyl)-2H,4H,5H,6H-pyrrolo[3,4-c]pyrazol-5-yl]-2-hydroxy-2-phenylethan-1-one], the AC50 in test [1] is 17 nM; in test [2], 16 nM.
